This is an account of results in BindingDB's records for doi:10.1016/S0960-894X(96)00248-X (1996).

The experiment is described as follows: Inhibitory activity against gastrin receptor.

What is called IC50 is the midpoint of a concentration-inhibition curve. Read a low IC50 as greater potency.

In the case of `Cc1cccc(NC(=O)NC2N=C(c3ccccc3)c3ccccc3N(CC(=O)NCCCC(=O)NCCSCc3csc(N=C(N)N)n3)C2=O)c1` (stereo not drawn) [N-[2-(2-Guanidino-thiazol-4-ylmethylsulfanyl)-ethyl]-4-{2-[2-oxo-5-phenyl-3-(3-m-tolyl-ureido)-2,3-dihydro-benzo[e][1,4]diazepin-1-yl]-acetylamino}-butyramide], the IC50 worked out at 190 nM. With `Cc1cccc(NC(=O)NC2N=C(c3ccccc3)c3ccccc3N(CC(=O)NCC(=O)NCCSCc3csc(N=C(N)N)n3)C2=O)c1` (stereo not drawn) [N-{[2-(2-Guanidino-thiazol-4-ylmethylsulfanyl)-ethylcarbamoyl]-methyl}-2-[2-oxo-5-phenyl-3-(3-m-tolyl-ureido)-2,3-dihydro-benzo[e][1,4]diazepin-1-yl]-acetamide] the figure was 370 nM; with `Cc1cccc(NC(=O)NC2N=C(c3cccc(OCC(=O)NCC(=O)NCCSCc4csc(N=C(N)N)n4)c3)c3ccccc3N(C)C2=O)c1` (stereo not drawn) [N-{[2-(2-Guanidino-thiazol-4-ylmethylsulfanyl)-ethylcarbamoyl]-methyl}-2-{3-[1-methyl-2-oxo-3-(3-m-tolyl-ureido)-2,3-dihydro-1H-benzo[e][1,4]diazepin-5-yl]-phenoxy}-acetamide], 12 nM.
